The source of these data is article PMC4259358, “Functional Characterization of Nuclear Localization and Export Signals in Hepatitis C Virus Proteins and Their Role in the Membranous Web” (PLoS ONE, 2014).

The subject of experiment [1] is JFH-1 HCV. Format: cell-based, Hepatitis C virus. To be noted: for time of addition at which the ability to inhibit HCV infection is lost: Huh7.5, JFH-1, 4 h at 4°C then 37°C, added at 2 h intervals, % NS5A-positive cells at 72 h PTS, Ezetimibe 30 µM, LMB 18 nM, BMS-986094 10 nM, DGAT 1 inhibitor 10 nM, n = 3.
Method: Huh7.5 cells were infected with JFH-1 HCV and maintained at 4°C for 4 hours (h) to synchronize the cells before shifting the temperature to 37°C. Post temperature shift (PTS), infected cells were incubated for various lengths of times prior to the addition of peptides or known inhibitors of HCV at 2 h intervals. […] We deliberately selected the final time point of 72 h PTS to reflect the number of cells infected by a second round of infection. […] This would be reflected by the number of cells infected in the second round as measured at 72 h PTS.
In order to elucidate the time points in infection when the nuclear transport signals bearing peptides are functional, cells were synchronously infected and treated with the indicated peptides. Each time point (2 h intervals) represents a culture treated with the indicated reagent at the specified time post temperature shift (PTS) and initiation of HCV infection. […] (A) Known inhibitors of HCV production (Ezetimibe (30 µM), LMB (18 nM), BMS-986094 (10 nM) and DGAT 1 inhibitor (10 nM)) and control (Pen peptide 100 µM, DMSO 2%, no treatment, and no infection) were examined. […] Error bars represent ± standard deviation, n = 3.
For the time of addition experiments, cells were seeded at a density of 6.25×10^4 cells/well in a 96-well plate and infected with 0.1 genomic equivalents of serially passaged JFH-1 virus on ice: cells then were incubated at 4°C for 4 h.
Briefly, Huh7.5 cells were infected as described above and the test compounds were added to different wells at different time points before the temperature shift (-4 h and -2 h) and every 2 h after the temperature shift (0, 2, 4,…, 48 h). […] The infection levels were calculated by counting infected and total cells numbers in ten random fields for each condition. The non-treated cell infection level was normalized to 100% and all other infections were calculated based on that normalization.
Experiment [2] has as its target T1, XPO1 (Homo sapiens, UniProt O14980).
T1 construct: Expression and purification of full length XPO1 were perform according to methods described in a previous publication; His tag; made in house; host or cells: Escherichia coli BL21(DE3), pET21 vector
Nature of the experiment: ELISA-based binding assay (Kd(app)). In general terms: An ELISA detects its analyte on a solid surface through an enzyme-linked reagent.

Experiment [3] relates to interaction of core, NS3, or NS5A with IPO5. Put plainly: Peptide competition of HCV protein-NTF interaction (ELISA in-vitro, Co-IP in cell culture). To be noted: ELISA with 100 µM peptide and Co-IP of V5 tagged HCV proteins; n = 3. Format: biochemical. The procedure:
(§1) To examine the specificity of the interactions between HCV proteins and NTFs, we examined the ability of each putative NLS or NES peptide identified in Fig. 1 to disrupt the interaction between the HCV protein and the NTF, using an ELISA in-vitro and co-immunoprecipitation (Co-IP) in cell culture assays (Fig. 3, S3 and S4 Figure). The ELISA plates were coated with HCV proteins while NTFs and competitive peptides were added, and the fraction of bound NTF was measured using NTF specific antibodies. The Co-IP was conducted by expression of V5 tagged HCV proteins in the presence of competing peptides, followed by immunoprecipitation with V5 specific antibody and immunoblotting with specific NTF antibodies.
(§2) Figure 3 Analysis of HCV protein binding to NTFs in the presence of NLS and NES peptides. ELISA plates were coated with HCV proteins and the relative binding of the different NTFs was monitored by ELISA in the presence of 100 µM of the indicated peptide. For the Co-IP study, cells were transfected by plasmid encoding to V5 tagged HCV proteins and treated by the indicated peptides. After 48 h, cells were lysed and Co-IP using anti V5 antibody and blotted to enable detection of the different NTFs. Western blots were quantified using Multi Gauge v. 3.0. […] The y-axis represents the percentage of NTF bound to the HCV protein; the interaction without the peptide is set to 100%. Error bars represent ± standard deviation, n = 3. The significant difference between the untreated (no peptide) and peptide treated is indicated by: * p<0.05, ** p<0.01, *** p<0.001, **** p<0.0001.
(§3) Protein-peptide and protein-protein binding were estimated using an ELISA-based binding assay as described previously. Briefly, ELISA plates were coated with 200 µl of a 10 µg/ml of synthetic peptide or recombinant protein in a carbonate buffer (0.05 M Na2CO3/0.05 M NaHCO3, pH 9.6) overnight at 4°C. After incubation, the solution was removed, and the plates were washed three times with PBS. […] Each measurement was performed in duplicate.

Experiment [4] concerns core- and NS2-XPO1 interactions. The description is as above. Format: biochemical. The following applies: plates coated with HCV protein, 100 µM peptide, n = 3. The procedure: as §1, §2, §3
Experiment [5] relates to interaction of core, NS2, or NS3 with IPOA5. The experiment is described as above. The following applies: ELISA with 100 µM peptide and Co-IP of V5 tagged HCV proteins; n = 3. It counts as biochemical. As to the method:
as §1, §2, §3

In experiment [6] the target is T2, IPO5 (Homo sapiens, UniProt O00410).
T2 construct: Expression and purification of full length IPOA5, IPO5 were perform according to methods described previously; His tag; made in house; host or cells: Escherichia coli BL21(DE3), pET21 vector
Nature of the experiment: biochemical. Format: binding.

For experiment [7], the target named is T3, IPOA5 (Homo sapiens, UniProt P52294).
T3 construct: Expression and purification of full length IPOA5, IPO5 were perform according to methods described previously; His tag; made in house; host or cells: Escherichia coli BL21(DE3), pET21 vector
Nature of the experiment: biochemical. It counts as binding.

Experiment [8] concerns JFH-1 HCV. The following applies: literature value; cited from earlier work. As to the method: Ezetimibe is known to inhibit a late stage of HCV entry, and it lost its ability to inhibit HCV infection when added 4–10 h PTS, thus defining the last phase of entry (Fig. 6A). […] In our study, the inhibitory effect of LMB was lost 10–14 hours PTS (Fig. 6A). BMS-986094, an inhibitor of NS5B polymerase, lost its ability to inhibit HCV infection when added 10–24 h PTS, thus defining the period of viral RNA synthesis (Fig. 6A). The ...

Experiment [9] relates to HEK293T cells. Put plainly: Localization of nuclear transport signal-double GFP reporter in HEK293T cells. Format: cell-based. More on the design: key: +++ for strong; ++ for moderate; + for weak; − for no localization. To be noted: double GFP cargo, 24 h post transfection, fluorescence quantified with ImageJ (S6, S7 Figures); NES/SEN on SV40 NLS double GFP. The source says: To determine whether NTF binding sites found in the HCV proteins were functional nuclear transport signals, we constructed reporter proteins each consisting of one of the HCV proteins NTF binding sites followed by two C-terminal, tandemly repeated GFP molecules. The double GFP moieties were required to keep the reporter from entering the nucleus, since a single GFP is small enough to diffuse freely through NPCs, [35]. As controls, constructs containing the reversed amino-acid residue sequence of the potential NLS (SLN) were also examined using the double GFP reporter assay (S5 Figure). These SLN reporters were predicted to not accumulate in the nucleoplasm. In addition, reporters to examine the functionality of the potential XPO1 binding domains were also constructed. These reporters consist of an SV40 NLS and a double GFP molecule followed by one of the various potential NESs at the C-terminus (S5 Figure). In the absence of a functional NES, this reporter will accumulate in the nucleus. However, a functional NES is predicted to export the reporter, leading to increased steady-state levels of the reporter in the cytoplasm.
Figure 4 Functionality of the putative nuclear transport signals in cells. Cells were transfected by the vectors encoding a nuclear transport reporter consisting of a tandemly repeated double GFP fused to the indicated C-terminal nuclear transport signal (panels A-N). At 24 h following transfection, cells were fixed and stained with Hoechst to visualize the nucleus. Cells were examined using a Zeiss inverted Axiovert 200 M microscope to assess the localization of the GFP (green) and its relationship to the nucleus (blue). A hashed yellow square demarcates the magnified area shown in the right-most image of each panel. Fluorescent intensity was quantified using ImageJ v. […] Analysis of the reverse sequences of each transport signal as well as the mutant SV40 NLS was also performed and the results are shown in S7 Figure.
Nuclear transport signals-double GFP constructs were transfected into HEK293T cells using lipofectamine 2000. At 24 h post transfection cells were fixed, stained, and visualized for localization of the GFP. For detailed information see S1 Methods.
Nuclear transport signal-double GFP constructs were transfected into HEK293T cells using lipofectamine 2000 reagent (Invitrogen, 11668019). At 24 h post transfection cells were fixed with 3.76% formaldehyde at room temperature (Sigma, F8775-500ML) for 8 min then permeabilized in 0.2% Triton X-100 (VWR, CA97062-208) for 2 min. Cells were washed three times with X1 PBS and were stained with Hoechst 1:5000 in X1 PBS for 5 min followed by three washes with X1 PBS. The cells were visualized using a Zeiss inverted Axiovert 200M microscope with a 20x/0.8 objective lens to examine localization of the GFP. At least ten random fields of cells were imaged for each combination. Channels were merged using ImageJ software (National Institutes of Health). Photoshop Elements 10 (Adobe) software was used to adjust brightness and contrast levels for individual images and to assemble images into figures.

Ends that are not written are not given here.

T3 sequence (P52294 whole entry): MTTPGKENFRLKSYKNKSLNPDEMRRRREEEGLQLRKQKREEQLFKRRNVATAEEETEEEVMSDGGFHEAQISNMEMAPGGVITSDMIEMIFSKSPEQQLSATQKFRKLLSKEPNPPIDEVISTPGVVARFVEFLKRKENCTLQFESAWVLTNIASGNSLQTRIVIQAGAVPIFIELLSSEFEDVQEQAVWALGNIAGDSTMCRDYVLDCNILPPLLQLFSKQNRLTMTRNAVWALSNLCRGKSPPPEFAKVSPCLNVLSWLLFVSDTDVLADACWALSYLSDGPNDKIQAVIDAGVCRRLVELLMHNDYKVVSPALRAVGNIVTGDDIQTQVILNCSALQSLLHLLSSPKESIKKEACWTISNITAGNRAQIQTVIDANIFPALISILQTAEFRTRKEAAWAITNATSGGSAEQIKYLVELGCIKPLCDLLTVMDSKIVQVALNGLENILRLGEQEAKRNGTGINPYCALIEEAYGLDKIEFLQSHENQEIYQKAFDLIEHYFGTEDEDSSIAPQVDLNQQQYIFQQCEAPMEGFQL
T2 sequence (O00410 whole entry): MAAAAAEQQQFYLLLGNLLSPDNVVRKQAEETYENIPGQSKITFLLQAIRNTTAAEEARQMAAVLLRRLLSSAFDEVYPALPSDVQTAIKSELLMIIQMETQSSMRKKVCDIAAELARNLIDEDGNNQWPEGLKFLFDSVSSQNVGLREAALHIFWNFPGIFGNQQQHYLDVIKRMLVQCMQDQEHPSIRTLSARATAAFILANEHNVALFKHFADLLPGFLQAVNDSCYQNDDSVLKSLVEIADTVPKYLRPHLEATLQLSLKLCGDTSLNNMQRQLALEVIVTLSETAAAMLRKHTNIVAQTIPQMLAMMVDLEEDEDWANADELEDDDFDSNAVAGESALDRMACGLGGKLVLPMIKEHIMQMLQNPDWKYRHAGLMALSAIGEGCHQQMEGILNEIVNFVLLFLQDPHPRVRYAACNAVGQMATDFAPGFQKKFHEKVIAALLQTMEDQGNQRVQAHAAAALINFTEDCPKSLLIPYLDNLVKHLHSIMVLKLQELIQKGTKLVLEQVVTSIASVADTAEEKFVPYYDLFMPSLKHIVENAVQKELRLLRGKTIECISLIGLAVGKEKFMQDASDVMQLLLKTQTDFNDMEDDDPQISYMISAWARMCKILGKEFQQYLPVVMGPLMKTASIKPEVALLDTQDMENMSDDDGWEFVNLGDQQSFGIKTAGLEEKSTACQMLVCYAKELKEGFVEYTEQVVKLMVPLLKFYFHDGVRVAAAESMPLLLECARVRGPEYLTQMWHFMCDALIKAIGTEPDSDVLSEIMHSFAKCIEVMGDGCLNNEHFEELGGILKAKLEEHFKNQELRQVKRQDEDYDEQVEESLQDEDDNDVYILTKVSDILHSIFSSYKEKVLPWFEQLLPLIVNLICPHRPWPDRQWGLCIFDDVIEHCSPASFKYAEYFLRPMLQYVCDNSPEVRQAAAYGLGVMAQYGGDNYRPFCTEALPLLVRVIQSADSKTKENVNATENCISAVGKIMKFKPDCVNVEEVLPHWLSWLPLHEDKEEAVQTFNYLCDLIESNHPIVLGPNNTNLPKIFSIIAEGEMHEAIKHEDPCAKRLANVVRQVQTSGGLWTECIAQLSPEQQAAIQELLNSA
T1 sequence (O14980 whole entry): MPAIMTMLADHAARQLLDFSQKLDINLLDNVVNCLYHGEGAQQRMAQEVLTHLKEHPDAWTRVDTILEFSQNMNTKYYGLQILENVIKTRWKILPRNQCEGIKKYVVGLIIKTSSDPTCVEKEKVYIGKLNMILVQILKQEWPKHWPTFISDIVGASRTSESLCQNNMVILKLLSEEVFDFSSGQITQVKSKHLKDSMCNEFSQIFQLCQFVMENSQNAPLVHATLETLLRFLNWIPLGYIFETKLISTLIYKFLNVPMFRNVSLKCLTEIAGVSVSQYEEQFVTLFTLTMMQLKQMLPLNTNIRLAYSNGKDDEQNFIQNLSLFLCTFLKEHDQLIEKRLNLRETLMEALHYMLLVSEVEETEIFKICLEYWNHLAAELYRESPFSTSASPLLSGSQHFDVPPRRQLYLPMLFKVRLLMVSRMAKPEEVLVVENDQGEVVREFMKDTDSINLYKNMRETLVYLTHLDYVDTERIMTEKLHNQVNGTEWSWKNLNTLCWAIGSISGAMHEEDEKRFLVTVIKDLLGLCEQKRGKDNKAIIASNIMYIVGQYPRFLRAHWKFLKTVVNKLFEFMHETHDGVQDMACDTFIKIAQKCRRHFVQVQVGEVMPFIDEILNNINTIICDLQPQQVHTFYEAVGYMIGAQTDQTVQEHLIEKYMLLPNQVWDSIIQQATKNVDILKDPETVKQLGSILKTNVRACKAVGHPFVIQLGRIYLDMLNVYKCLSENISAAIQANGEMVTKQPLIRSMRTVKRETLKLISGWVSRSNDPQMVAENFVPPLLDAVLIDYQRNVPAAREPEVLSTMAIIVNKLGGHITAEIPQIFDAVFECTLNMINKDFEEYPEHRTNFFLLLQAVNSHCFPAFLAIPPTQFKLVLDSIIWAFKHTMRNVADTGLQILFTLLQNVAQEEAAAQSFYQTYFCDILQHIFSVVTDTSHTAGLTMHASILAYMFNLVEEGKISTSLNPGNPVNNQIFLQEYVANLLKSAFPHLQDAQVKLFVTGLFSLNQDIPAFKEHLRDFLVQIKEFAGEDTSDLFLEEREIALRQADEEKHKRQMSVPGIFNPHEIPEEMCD

As for `COc1nc(N)nc2c1ncn2[C@@H]1O[C@H](COP(=O)(N[C@@H](C)C(=O)OCC(C)(C)C)Oc2cccc3ccccc23)[C@@H](O)[C@@]1(C)O` (stereo partly shown) [BMS-986094], the “time of addition at which the ability to inhibit HCV infection is lost” value in experiment [1] is listed as 10–24 h PTS.

Take `O=C1[C@H](CC[C@H](O)c2ccc(F)cc2)[C@@H](c2ccc(O)cc2)N1c1ccc(F)cc1` [Ezetimibe]: the “time of addition at which the ability to inhibit HCV infection is lost” value in [1] was 4–10 h PTS.

`CC[C@H](C)[C@H](NC(=O)[C@H](CC(C)C)NC(=O)[C@H](CCCNC(=N)N)NC(=O)[C@H](C)NC(=O)[C@H](CC(C)C)NC(=O)[C@H](Cc1ccccc1)NC(=O)[C@H](CC(C)C)NC(=O)[C@H](CCCCN)NC(=O)[C@H](Cc1ccc(O)cc1)NC(=O)[C@H](Cc1c[nH]cn1)NC(=O)[C@@H]1CCCN1C(=O)[C@H](CO)NC(=O)[C@H](CC(C)C)NC(=O)[C@@H](NC(=O)[C@H](CC(C)C)NC(=O)[C@H](CC(C)C)NC(=O)[C@@H](NC(=O)[C@@H](N)CC(C)C)[C@@H](C)CC)[C@@H](C)O)C(=O)N[C@@H](Cc1c[nH]c2ccccc12)C(=O)N[C@@H](Cc1c[nH]c2ccccc12)C(=O)N[C@@H](CC(C)C)C(=O)N[C@@H](CCC(N)=O)C(=O)N[C@@H](Cc1ccc(O)cc1)C(=O)N[C@@H](Cc1ccccc1)C(=O)N[C@H](C(=O)N[C@H](C(=O)N[C@@H](CCCNC(=N)N)C(=O)N[C@@H](CCC(N)=O)C(=O)N[C@H](C(=O)N[C@@H](CCCCN)C(=O)N[C@H](C(=O)N[C@@H](Cc1c[nH]c2ccccc12)C(=O)N[C@@H](Cc1ccccc1)C(=O)N[C@@H](CCC(N)=O)C(=O)N[C@@H](CC(N)=O)C(=O)N[C@@H](CCCNC(=N)N)C(=O)N[C@@H](CCCNC(=N)N)C(=O)N[C@@H](CCSC)C(=O)N[C@@H](CCCCN)C(=O)N[C@@H](Cc1c[nH]c2ccccc12)C(=O)N[C@@H](CCCCN)C(=O)N[C@@H](CCCCN)C(=O)O)[C@@H](C)CC)[C@@H](C)CC)[C@@H](C)O)[C@@H](C)CC` [NS2 NES] came in with a Kd in experiment [2] of 79.9 ± 25.6 nM.

Turning to RQIKIWFQNRRMKWKK [Pen], the “effect of peptide on HCV protein-IPO5 interaction (in words)” value in [3] is “do not interfere with IPOA5, IPO5 or XPO1 binding”. Also, the “effect of peptide on HCV protein-XPO1 interaction (in words), ELISA” value in [4] was “do not interfere with IPOA5, IPO5 or XPO1 binding”. For the same molecule, the “effect of peptide on HCV protein-IPOA5 interaction (in words)” value in [5] is “do not interfere with IPOA5, IPO5 or XPO1 binding”. The “effect on infection (in words)” value in [1] (Pen peptide 100 µM, time of addition experiment) is listed as “had no effect on infection”.

In the case of “RSQRRGRTTGRGRRQIKIWFQNRRMKWKK [NS3 NLS 2]”, the Kd in experiment [6] came to 35.8 ± 7.26 nM; in [7], 36.6 ± 7.13 nM.

As for `CCC(=C/[C@H](C)C/C=C/C(C)=C/[C@@H](C)C(=O)[C@@H](C)[C@H](O)[C@@H](C)C/C(C)=C/C(=O)O)/C=C/[C@@H]1OC(=O)C=C[C@@H]1C` [LMB, Leptomycin B], in experiment [8], the “time at which the inhibitory effect on HCV was lost” value was 8 h post infection.

Take “PKTKRKVRQIKIWFQNRRMKWKK [SV40 mut NLS, reference compound]”: in [9], the “Localization Cytoplasmic” value is “+++” and the “Localization Nuclear” value was “−”. Further, the “effect of peptide on HCV protein-IPO5 interaction (in words)” value in experiment [3] is listed as “do not interfere with IPOA5, IPO5 or XPO1 binding”. In experiment [4], the “effect of peptide on HCV protein-XPO1 interaction (in words), ELISA” value was “do not interfere with IPOA5, IPO5 or XPO1 binding”. Further, the “effect of peptide on HCV protein-IPOA5 interaction (in words)” value in [5] is reported as “do not interfere with IPOA5, IPO5 or XPO1 binding”. Further, in [7] (ELISA, immobilized peptide or HCV protein), the “binding to IPOA5 (in words)” value is on record as “does not bind IPOA5”.
